Laboratory results reported in publication PMC10817531, “Chlorinated Enyne Fatty Acid Amides from a Marine Cyanobacterium: Discovery of Taveuniamides L-M and Pharmacological Characterization of Taveuniamide F as a GPCR Antagonist with CNR1 Selectivity” (Marine Drugs, 2023).
Values joined by “and” are separate entries in the source; they are usually repeats but may differ in a detail not shown here. Equal values may be shown once.

How the values were obtained:
HEK293 cells = test: MTT cell viability assay; format: cell-based; conditions: 24 h exposure, 100 μM
Description: (§1) HEK293 cells were purchased from ATCC (Manassas, VA, USA). They were cultured and maintained in Dulbecco’s modified Eagle medium (DMEM; Invitrogen, Waltham, MA, USA) supplemented with 10% fetal bovine serum (FBS; HyClone, Logan, UT, USA) and 1% antibiotic-antimycotic (Invitrogen) at 37 °C in a humidified atmosphere with 5% CO2. HEK293 cells were seeded in 96-well plates at densities of 15,000 cells per well in 100 μL, respectively. After 16 h of incubation, the cells were treated with 0.5 μL of various concentrations of compounds or a DMSO solvent control. Following 24 h of incubation, cells were treated with 3-(4,5-dimethylthiazol-2-yl)-2,5-diphenyltetrazolium bromide according to the manufacturer’s instructions (Promega, Madison, WI, USA). The experiments were performed as technical triplicates.

MTT cell viability assay = format: cell-based; conditions: human, HEK293 cells; 24 h exposure, majority of tested concentrations (below 100 μM)
Description: as §1

GPR119 = molecular target: T1, GPR119 (Homo sapiens, UniProt Q8TDV5); test: PathHunter β-arrestin GpcrMAX assay; format: cell-based
T1 construct: host or cells: HEK293
Description: (§2) GpcrMAX panel biosensor assays were used to characterize taveuniamide F (4, 20 µM) (agonist and antagonist mode). The experiments were carried out by DiscoveRx Corporation (Fremont, CA, USA) as described before, using PathHunter β-arrestin enzyme fragment complementation (EFC) technology.
(§3) Dose–response curves were obtained by subjecting taveuniamide F (4) to a secondary antagonist screen utilizing ten GPCR biosensor assays (Arrestin) against the following targets: GPR119, NPSR1b, HTR2C, CCR9, CHRM4, GPR120, HTR2A, GPR103, CNR1, and CNR2. Stably transfected HEK293 cells expressing GPR119, U2OS cells expressing NPSR1b, HTR2C and HTR2A, and CHO-K1 cells expressing the rest of the mentioned receptors, were incubated with 4 for 30 min. The assays were performed at 10-point concentrations using 3-fold serial dilutions in duplicate, where the highest concentration was 50 µM.

CCR9 = molecular target: T2, CCR9 (Homo sapiens, UniProt P51686); test: PathHunter β-arrestin GpcrMAX assay; format: cell-based
T2 construct: host or cells: CHO-K1
T2 sequence (P51686 1-369): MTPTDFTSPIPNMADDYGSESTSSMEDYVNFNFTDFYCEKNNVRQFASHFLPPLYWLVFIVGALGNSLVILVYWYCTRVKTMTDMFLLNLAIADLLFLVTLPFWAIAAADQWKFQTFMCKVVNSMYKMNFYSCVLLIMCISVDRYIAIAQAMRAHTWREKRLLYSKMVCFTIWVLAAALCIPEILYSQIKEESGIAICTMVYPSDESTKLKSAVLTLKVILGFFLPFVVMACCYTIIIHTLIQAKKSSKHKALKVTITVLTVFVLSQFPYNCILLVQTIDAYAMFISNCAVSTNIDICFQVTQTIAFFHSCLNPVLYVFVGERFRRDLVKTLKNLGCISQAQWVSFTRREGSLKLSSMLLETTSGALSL
Description: as §2, §3

CNR1 = molecular target: T3, CNR1 (Homo sapiens, UniProt P21554); test: PathHunter β-arrestin GpcrMAX assay; format: cell-based
T3 construct: host or cells: CHO-K1
Description: as §2, §3

HTR2A = molecular target: T4, HTR2A (Homo sapiens, UniProt P28223); test: PathHunter β-arrestin GpcrMAX assay; format: cell-based
T4 construct: host or cells: U2OS
Description: as §2, §3

HTR2C = molecular target: T5, HTR2C (Homo sapiens, UniProt P28335); test: PathHunter β-arrestin GpcrMAX assay; format: cell-based
T5 construct: β-galactosidase enzyme fragment for EFC (ProLink by own knowledge); host or cells: U2OS
T5 sequence (P28335 33-458): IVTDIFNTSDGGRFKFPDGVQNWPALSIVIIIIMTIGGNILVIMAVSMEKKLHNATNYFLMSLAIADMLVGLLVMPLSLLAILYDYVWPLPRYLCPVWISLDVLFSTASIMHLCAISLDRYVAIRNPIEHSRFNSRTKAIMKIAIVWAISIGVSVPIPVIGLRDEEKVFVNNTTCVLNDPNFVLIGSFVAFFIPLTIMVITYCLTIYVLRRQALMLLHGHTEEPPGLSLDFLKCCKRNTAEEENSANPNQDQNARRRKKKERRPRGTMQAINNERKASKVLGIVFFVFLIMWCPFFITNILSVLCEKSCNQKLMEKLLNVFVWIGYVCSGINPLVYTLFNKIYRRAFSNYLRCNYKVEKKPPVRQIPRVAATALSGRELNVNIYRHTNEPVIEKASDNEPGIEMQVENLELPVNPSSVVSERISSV
Description: as §2, §3

CNR2 = molecular target: T6, CNR2 (Homo sapiens, UniProt P34972); test: PathHunter β-arrestin GpcrMAX assay; format: cell-based
T6 construct: purchased DiscoveRx (Eurofins) gpcrMAX PathHunter β-arrestin panel
Description: as §2, §3

[1] = molecular target: T7, human recombinant cannabinoid CNR1 receptors (Homo sapiens, UniProt P21554); test: Competitive radioligand binding assay ([3H]SR141716A); conditions: 2 nM [3H]SR141716A, 60 min, 37 °C, Chem-1 cell membranes
T7 construct: host or cells: rat hematopoietic Chem-1 cells (membrane homogenate)
Description: (a) Competitive radioligand binding assay of 4 to CNR1. Membrane homogenate of rat hematopoietic Chem-1 cells expressing human recombinant CNR1 receptors is incubated with 2 nM [3H]SR141716A for 60 min at 37 °C. […] (b) Effect of 4 in CNR1 cAMP functional assay in agonist and antagonist mode. Experiments were carried out as technical duplicates. Data are presented as mean ± SD (n = 2).
The assay was carried out by Eurofins Panlabs Discovery Services (New Taipei City, Taiwan). Human recombinant cannabinoid CNR1 receptors expressed in rat hematopoietic Chem-1 cells were used in modified HEPES buffer (50 mM HEPES, pH 7.4, 5 mM MgCl2, 1 mM CaCl2, 0.2% BSA). A 5 µg aliquot of membrane homogenate was incubated with 2 nM [^3H]SR141716A for 60 min at 37 °C. […] Membranes were filtered and washed four times and the filters were counted to determine [^3H]SR141716A as specifically bound. Compound 4 was screened at 8 concentrations, where the highest concentration was 50 µM. […] The experiments were carried out as technical duplicates.

[2] = antagonist mode (% inhibition), 20 µM
[3] = antagonist dose–response, 10-point, CHO-K1 cells, 30 min
[4] = antagonist dose–response, 10-point, U2OS cells, 30 min

T1 sequence (Q8TDV5 whole entry): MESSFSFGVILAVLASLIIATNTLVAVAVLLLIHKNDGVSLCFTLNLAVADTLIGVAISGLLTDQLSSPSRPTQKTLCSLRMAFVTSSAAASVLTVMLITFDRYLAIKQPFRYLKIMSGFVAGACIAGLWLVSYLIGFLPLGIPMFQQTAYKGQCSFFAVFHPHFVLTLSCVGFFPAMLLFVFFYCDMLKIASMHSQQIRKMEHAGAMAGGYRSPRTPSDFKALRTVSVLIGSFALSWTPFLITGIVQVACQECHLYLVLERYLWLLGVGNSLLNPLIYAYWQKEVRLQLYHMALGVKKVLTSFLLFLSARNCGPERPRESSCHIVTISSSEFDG
T3 sequence (P21554 whole entry): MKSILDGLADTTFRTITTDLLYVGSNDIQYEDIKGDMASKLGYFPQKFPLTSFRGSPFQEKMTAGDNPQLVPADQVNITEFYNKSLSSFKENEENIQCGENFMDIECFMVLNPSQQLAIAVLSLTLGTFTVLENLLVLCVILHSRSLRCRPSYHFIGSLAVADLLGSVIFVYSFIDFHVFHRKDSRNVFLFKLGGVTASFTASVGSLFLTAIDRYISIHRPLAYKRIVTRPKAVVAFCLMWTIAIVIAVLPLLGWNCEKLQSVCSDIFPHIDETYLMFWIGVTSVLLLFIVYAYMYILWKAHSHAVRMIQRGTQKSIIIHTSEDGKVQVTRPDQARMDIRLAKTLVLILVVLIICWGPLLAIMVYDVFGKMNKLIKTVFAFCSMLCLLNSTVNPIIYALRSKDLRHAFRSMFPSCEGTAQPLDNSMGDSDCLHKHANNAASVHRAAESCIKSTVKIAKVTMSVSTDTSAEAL
T4 sequence (P28223 whole entry): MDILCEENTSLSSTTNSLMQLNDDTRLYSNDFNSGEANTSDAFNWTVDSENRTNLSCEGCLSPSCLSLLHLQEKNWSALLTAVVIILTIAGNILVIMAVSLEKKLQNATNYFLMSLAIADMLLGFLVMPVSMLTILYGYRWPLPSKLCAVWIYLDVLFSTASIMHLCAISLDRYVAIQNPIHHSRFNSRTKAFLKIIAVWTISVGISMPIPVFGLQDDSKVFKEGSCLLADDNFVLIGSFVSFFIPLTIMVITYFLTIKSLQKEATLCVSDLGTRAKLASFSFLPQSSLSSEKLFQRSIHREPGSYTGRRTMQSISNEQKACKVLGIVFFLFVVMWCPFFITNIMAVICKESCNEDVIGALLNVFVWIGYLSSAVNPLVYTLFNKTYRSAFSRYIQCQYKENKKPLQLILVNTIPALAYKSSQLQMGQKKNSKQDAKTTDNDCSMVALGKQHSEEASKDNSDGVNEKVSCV
T7 sequence (P21554 whole entry): as the sequence (P21554 whole entry) above
T6 sequence (P34972 whole entry): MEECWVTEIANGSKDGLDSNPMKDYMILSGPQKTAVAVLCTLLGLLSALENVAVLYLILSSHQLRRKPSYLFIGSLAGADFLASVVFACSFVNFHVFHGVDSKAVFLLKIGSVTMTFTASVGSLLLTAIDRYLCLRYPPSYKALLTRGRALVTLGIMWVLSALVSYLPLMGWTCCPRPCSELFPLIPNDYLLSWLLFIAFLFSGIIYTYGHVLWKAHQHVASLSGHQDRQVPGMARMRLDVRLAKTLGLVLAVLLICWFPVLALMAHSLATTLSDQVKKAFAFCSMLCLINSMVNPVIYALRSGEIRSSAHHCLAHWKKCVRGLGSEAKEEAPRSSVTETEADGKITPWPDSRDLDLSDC

IC50 (GPR119; antagonist dose–response, 10-point, HEK293 cells, 30 min): 11.7 µM
inhibition (GPR119; [2]): 114% and ≥ 80%
IC50 (CCR9; [3]): 7.4 µM and 7.38 µM
inhibition (CCR9; [2]): ≥ 80%
inhibition at 20 µM (CCR9; [2]): 98.9%
IC50 (CNR1; [3]): 1.84 µM
inhibition (CNR1; [2]): ≥ 80%
inhibition at 20 µM (CNR1; [2]): 84%
selectivity for CNR1 over CNR2 (CNR1; antagonist screen (β-arrestin), CNR1 vs. CNR2): 6.8 fold
IC50 (HTR2A; [4]): 4.8 µM and 4.83 µM
inhibition (HTR2A; [2]): ≥ 80%
inhibition at 20 µM (HTR2A; [2]): 84.9%
IC50 (HTR2C; [4]): > 50 µM
inhibition (HTR2C; [2]): ≥ 80%
inhibition at 20 µM (HTR2C; [2]): 99.1%
inhibition at 20 µM (CNR2): 48.6%
IC50 [1]: 37.7 µM
Ki [1]: 34 µM
SMILES: CC(=O)N[C@@H](CCCC#C/C=C/Cl)CCCCCCC(Cl)Cl [Compound 4, taveuniamide F]
reduction in cell viability (HEK293 cells): 56%
viability at 24 h (MTT cell viability assay): 100%
